The values that follow come from ChEMBL document CHEMBL1147429, “Synthesis and evaluation of novel bacterial rRNA-binding benzimidazoles by mass spectrometry” (Bioorg Med Chem Lett, 2004).

SMILES strings stand for the structures.

The assay relates to Ribosomal RNA A-site. Description: Binding affinity for the 16S ribosomal RNA A-site of Escherichia coli. Type of assay: nucleic-acid assay.
As a reminder, the Kd is the concentration at which binding is half-saturated. Read a low Kd as tighter binding. For the molecule `O=[N+]([O-])c1ccc2[nH]c(-c3ccncc3)nc2c1`, the Kd is > 1000 µM.

In the case of `c1cc2nc(C3CCNCC3)nc-2c[nH]1`, binding was put at a Kd of 110 µM.

Take `Clc1cc2nc(C3CCNCC3)[nH]c2cc1Cl`: the Kd was 174 µM.

The molecule `FC(F)(F)c1ccc(Cn2c(C3CCNCC3)nc3cc(Cl)c(Cl)cc32)cc1` returned a Kd of 214 µM.

Molecule `Cn1c(C2CCNCC2)nc2cc(Cl)c(Cl)cc21` displayed a Kd of 239 µM.

On to `O=[N+]([O-])c1ccc2[nH]c(-c3cccnc3)nc2c1`, for which the Kd was > 1000 µM.

Turning to `COc1ccc2[nH]c(C3CCNCC3)nc2c1`, the affinity, expressed as Kd, was 588 µM.

In the case of `c1ccc2[nH]c(C3CCNCC3)nc2c1`, the equilibrium dissociation constant (Kd) amounted to 108 µM.

With `Cc1ccc2[nH]c(C3CCNCC3)nc2c1`, the Kd was found to be 439 µM.

For the molecule `Clc1cc2nc(C3CCNCC3)n(Cc3cccnc3)c2cc1Cl`, the Kd turned out to be 67 µM.

In turn, `Clc1cc2nc(C3CCNCC3)n(-c3ncccn3)c2cc1Cl` showed a Kd of 672 µM.

Take `Clc1ccc2[nH]c(C3CCNCC3)nc2c1`: the dissociation constant Kd turned out to be 508 µM.

`Brc1ccc2[nH]c(C3CCNCC3)nc2c1` came in with a Kd of 361 µM.

`Clc1cc2nc(C3CCNCC3)n(Cc3ccc(I)cc3)c2cc1Cl` yielded a Kd of 198 µM.

Take `O=[N+]([O-])c1ccc(Cn2c(C3CCNCC3)nc3cc(Cl)c(Cl)cc32)cc1`: the Kd was determined as 241 µM.

The molecule `Clc1cc2nc(C3CCNCC3)n(Cc3ccc(Br)cc3)c2cc1Cl` had a Kd of 434 µM.

As to `FC(F)(F)c1ccc2[nH]c(C3CCNCC3)nc2c1`, the equilibrium dissociation constant (Kd) was 281 µM.

For the molecule `O=[N+]([O-])c1ccc2[nH]c(C3CCCCC3)nc2c1`, the Kd was > 1000 µM.

`COC(=O)Cn1c(C2CCNCC2)nc2cc(Cl)c(Cl)cc21` came in with a Kd of 301 µM.

As to `FC(F)(F)c1ccc(Cn2c(C3CCNCC3)nc3cc(Cl)c(Cl)cc32)c(C(F)(F)F)c1`, the Kd worked out at 159 µM.

As to `Clc1cc2nc(C3CCNCC3)n(Cc3cccc(I)c3)c2cc1Cl`, the Kd worked out at 405 µM.

`CN1CCC(c2nc3cc([N+](=O)[O-])ccc3[nH]2)CC1`: the Kd was > 1000 µM.

For the molecule `c1c[nH]c2nc(C3CCNCC3)nc-2c1`, binding was put at a Kd of 535 µM.

For `O=C(O)Cn1c(C2CCNCC2)nc2cc(Cl)c(Cl)cc21`, the Kd was > 1000 µM.

Molecule `N[C@H]1CC[C@@H](c2nc3cc([N+](=O)[O-])ccc3[nH]2)CC1` displayed a Kd of 123 µM.

Take `CC(=O)N1CCC(c2nc3cc([N+](=O)[O-])ccc3[nH]2)CC1`: the Kd is > 1000 µM.

In the case of `Clc1cc2nc(C3CCNCC3)n(Cc3ccncc3)c2cc1Cl`, the Kd was 60 µM.

For the molecule `Cc1ccc(OC(=O)n2c(C3CCNCC3)nc3cc(Cl)c(Cl)cc32)cc1`, the Kd is > 1000 µM.

In turn, `O=[N+]([O-])c1ccc(-n2c(C3CCNCC3)nc3cc(Cl)c(Cl)cc32)c([N+](=O)[O-])c1` displayed a Kd of 243 µM.

On to `c1ccc2sc(C3CCNCC3)nc2c1`, for which the Kd is > 1000 µM.

On to `N[C@H]1CC[C@@H](c2nc3cc([N+](=O)[O-])ccc3[nH]2)C1`, for which the Kd was 221 µM.

Molecule `COC(=O)c1ccc(Cn2c(C3CCNCC3)nc3cc(Cl)c(Cl)cc32)cc1` came in with a Kd of 224 µM.

`Cc1ccc(S(=O)(=O)n2c(C3CCNCC3)nc3cc(Cl)c(Cl)cc32)cc1`: the Kd is > 1000 µM.

In turn, `CCCCn1c(C2CCNCC2)nc2cc(Cl)c(Cl)cc21` yielded a Kd of 278 µM.

Turning to `Clc1ccc2scc(Cn3c(C4CCNCC4)nc4cc(Cl)c(Cl)cc43)c2c1`, the Kd was > 1000 µM.

`Clc1cc2nc(C3CCNCC3)n(Cc3ccccc3Br)c2cc1Cl`: the affinity, expressed as Kd, was 593 µM.

For `O=[N+]([O-])c1cc(C(F)(F)F)ccc1-n1c(C2CCNCC2)nc2cc(Cl)c(Cl)cc21`, binding was characterised by a dissociation constant (Kd) of 122 µM.

On to `CC(C)(C)c1ccc(Cn2c(C3CCNCC3)nc3cc(Cl)c(Cl)cc32)cc1`, for which binding was put at a Kd of 575 µM.

Molecule `O=[N+]([O-])c1ccc2[nH]c(C3CCNCC3)nc2c1` registered a Kd of 308 µM.

With `Nc1ccc2[nH]c(C3CCNCC3)nc2c1`, the Kd stood at 500 µM.

In the case of `Cc1cc2[nH]c(C3CCNCC3)nc2cc1Cl`, the affinity, expressed as Kd, was 380 µM.

The molecule `Fc1c(F)c(F)c(Cn2c(C3CCNCC3)nc3cc(Cl)c(Cl)cc32)c(F)c1F` gave a Kd of 237 µM.

In turn, `c1nc2nc(C3CCNCC3)nc-2c[nH]1` came in with a Kd of 914 µM.

Turning to `Nc1cccc(-c2nc3cc([N+](=O)[O-])ccc3[nH]2)c1`, the Kd was > 1000 µM.

In the case of `Fc1c(F)c(C(F)(F)F)c(F)c(F)c1Cn1c(C2CCNCC2)nc2cc(Cl)c(Cl)cc21`, the affinity, expressed as Kd, was 117 µM.

For `Nc1ccc(-c2nc3cc([N+](=O)[O-])ccc3[nH]2)cc1`, the Kd was > 1000 µM.

Regarding `NC1CCCC(c2nc3cc([N+](=O)[O-])ccc3[nH]2)C1` (stereo not drawn), the Kd was 105 µM.

As for `N[C@H]1C(O)O[C@H](CO)C(O)[C@@H]1O` (single isomer, unassigned) [GLUCOSAMINE], the Kd is ~1000 µM.
